One assay concerns GABAA receptor. The format is cell-based.
The subject of assay [1] is AMPA (glutamate subtype) receptor. Nature of the assay: Whole-cell patch-clamp, evoked inward synaptic current at -60 mV (glutamate currents). The format is cell-based. The conditions noted are these: 2 μM NBQX; whole-cell patch-clamped neurons. The procedure: Data were prepared as graphs of the effect of agents on the GABAA receptor-mediated transmission in the mutant and wt cells using whole-cell patch-clamping. The data included the evoked synaptic response ([…]) from whole-cell patch-clamped neurons. […] The evoked synaptic responses (averaged up to 15 each) recorded at holding potentials of 0 mV and −60 mV with the stimulating electrode placed in stratum radiatum at site 1, ˜50μm from the recording electrode at site 2, ˜250 μm from the recording electrode and at site two with the stimulus intensity increased ˜3-fold. Graphs were prepared of examples of averaged (up to 15 each) traces from patch-clamp whole-cell recordings-in wt and Δ9 mutation at […] (glutamate currents) and at 0 mV (GABAA currents). The graphs included peak amplitude of response ratios (measured at holding potentials of −60 mV and 0 mV, respectively) from cells in individual slices (n=9 slices each).

For the molecule picrotoxin, the “block of outward current recorded at 0 mV” value with GABAA receptor is given as “completely blocked”.
In the case of `NS(=O)(=O)c1cccc2c1c([N+](=O)[O-])cc1nc(O)c(O)nc12` [NBQX], in assay [1], the “block of inward current at holding potential of −60 mV” value was “completely blocked”. Besides, in the assay on GABAA receptor, the “block of outward current (di-synaptic inhibition)” value is recorded as “blocked some of the outward current”.
